Source: patent publication US20050009908A1, “Aqueous dispersion comprising stable nonoparticles of a water-insoluble active and an excipient like middle chain triglycerides (mct)” (priority 2001, published 2005)
≈ marks a conversion by molar mass, not a printed value. Where two headings read alike, the source gives them in different places.

Assay: Solubility of crystalline substance in the inhibitor (HPLC of saturated solution)
Format: physicochemical
Source text: The mole fraction solubility of the crystalline substantially water-insoluble substance in the inhibitor (x^S1) is simply the number of moles of substance per mole of inhibitor present in a saturated solution of the substance in the inhibitor. As will be realized the equation above is derived for a two component system of a substance and an inhibitor. In those systems where the inhibitor contains more than one compound (for example in the case of a medium chain triglyceride comprising a mixture of triglycerides such as Miglyol 812N, or where a mixture of inhibitors is used) it is sufficient to calculate x^S1 in terms of the “apparent molarity” of the mixture of inhibitors. The apparent molarity of such a mixture is calculated for a mixture of n inhibitor components to be: [formula] • wherein: a, b . . . n are the weight fraction of each component in the inhibitor mixture (for example for component a this is %w/w component a/100); and • Mwa . . . Mwn is the molecular weight of each component a . . . n in the mixture. • x^S1 is then calculated as: [formula]
The mole-fraction solubility of the felodipine/Miglyol 812N (x^sl in Equation I) was determined by magnetically stirring an excess of crystalline felodipine (approx 2-5 times that required for a saturated solution) in Miglyol 812N (5-25 ml) at 350 rpm (protected from light and sealed under a nitrogen atmosphere) for 2 days at room temperature. The resulting mixture was filtered to remove solids (0.2 μm filter) and then analyzed using BPLC to determine the quantity of felodipine dissolved in the Miglyol 812N. […] Miglyol 812N is a mixture of approximately 60% C8-triglyceride (Mw 471) and 40% C10-triglyceride (Mw 555) and has a density of approximately 0.945 g/cm^3. Thus, the apparent molarity of Miglyol 812N is 945/(0.6*471+0.4*555)=1.9].

[1] = oil or lipid, thermodynamic from solid

Row | mole fraction solubility in Miglyol 812N | mole fraction solubility in Miglyol 812N/1-decanol mixture | solubility [1] | solubility at 2 days [1] | solubility at 2 days (Miglyol 812N (medium chain triglyceride mixture), oil or lipid, thermodynamic from solid, room temperature, 2 days stirring, read-out: solubility in Miglyol 812N) | Compound
1 | 0.00116 | 0.0103 | 37 mM (≈ 12.4 mg/mL) | 2.2 mM (≈ 0.74 mg/mL) | – | CCc1cccc(C)c1CNc1cc(C(N)=O)cn2c(C)c(C)nc12 [8-[(2-ethyl-6-methylbenzyl)amino]-2,3-dimethylimidazo[1,2-a]pyridine-6-carboxamide]
2 | – | – | – | – | 69 mM (≈ 26.5 mg/mL) | CCOC(=O)C1=C(C)NC(C)=C(C(=O)OC)C1c1cccc(Cl)c1Cl (centres unmarked) [felodipine]
